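All cell lines were grown in 96-well plates and treated with compound for 48 hours. The concentration for 50% growth inhibition is given as GI50. TGI: concentration producing complete growth inhibition.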
Key:
Assay in all cases: NCI-60 cell line screen, 48 h
NCI-H23 lung = system: NCI-H23 lung
HCC-2998 colon = system: HCC-2998 colon
HCT-116 colon = system: HCT-116 colon
LXFL 529 NSCLC = system: LXFL 529 NSCLC
NCI-H460 lung = system: NCI-H460 lung
SK-OV-3 ovarian = system: SK-OV-3 ovarian
HL-60(TB) leukemia = system: HL-60(TB) leukemia
OVCAR-4 ovarian = system: OVCAR-4 ovarian
UACC-62 melanoma = system: UACC-62 melanoma
A498 renal = system: A498 renal
SW-620 colon = system: SW-620 colon
M14 melanoma = system: M14 melanoma
SNB-75 CNS = system: SNB-75 CNS
RPMI-8226 leukemia = system: RPMI-8226 leukemia
KM12 colon = system: KM12 colon
UACC-257 melanoma = system: UACC-257 melanoma
DMS 273 small cell lung = system: DMS 273 small cell lung
SNB-78 CNS = system: SNB-78 CNS
CCRF-CEM leukemia = system: CCRF-CEM leukemia
UO-31 renal = system: UO-31 renal
U251 CNS = system: U251 CNS
M19-MEL melanoma = system: M19-MEL melanoma
786-0 renal = system: 786-0 renal
SK-MEL-28 melanoma = system: SK-MEL-28 melanoma
RXF 393 renal = system: RXF 393 renal
DMS 114 small cell lung = system: DMS 114 small cell lung
SF-539 CNS = system: SF-539 CNS
SK-MEL-2 melanoma = system: SK-MEL-2 melanoma
TK-10 renal = system: TK-10 renal
HCT-15 colon = system: HCT-15 colon
HT29 colon = system: HT29 colon
EKVX NSCLC = system: EKVX NSCLC
A549 NSCLC = system: A549 NSCLC
XF 498 CNS = system: XF 498 CNS
NCI-H226 lung = system: NCI-H226 lung
MOLT-4 leukemia = system: MOLT-4 leukemia
MALME-3M melanoma = system: MALME-3M melanoma
CAKI-1 renal = system: CAKI-1 renal
KM20L2 colon = system: KM20L2 colon
OVCAR-8 ovarian = system: OVCAR-8 ovarian
OVCAR-5 ovarian = system: OVCAR-5 ovarian
SK-MEL-5 melanoma = system: SK-MEL-5 melanoma
ACHN renal = system: ACHN renal
HOP-62 NSCLC = system: HOP-62 NSCLC
K-562 leukemia = system: K-562 leukemia
IGROV1 ovarian = system: IGROV1 ovarian
OVCAR-3 ovarian = system: OVCAR-3 ovarian
DLD-1 colon = system: DLD-1 colon
SF-295 CNS = system: SF-295 CNS
HOP-92 NSCLC = system: HOP-92 NSCLC
COLO 205 colon = system: COLO 205 colon
LOX IMVI melanoma = system: LOX IMVI melanoma
SNB-19 CNS = system: SNB-19 CNS
NCI-H522 lung = system: NCI-H522 lung
SF-268 CNS = system: SF-268 CNS
SN12C renal = system: SN12C renal
HOP-18 NSCLC = system: HOP-18 NSCLC

C[C@]12CC[C@H](O)CC1=CC[C@@H]1C2CC[C@]2(C)NC(=O)C(C#N)CC12 (stereo partly drawn)
TGI (NCI-H23 lung): > 100 µM | TGI (HCC-2998 colon): > 100 µM | TGI (HCT-116 colon): > 100 µM | TGI (LXFL 529 NSCLC): > 100 µM | TGI (NCI-H460 lung): > 100 µM | TGI (SK-OV-3 ovarian): > 100 µM | TGI (HL-60(TB) leukemia): > 100 µM | TGI (OVCAR-4 ovarian): > 100 µM | TGI (UACC-62 melanoma): > 100 µM | TGI (A498 renal): > 100 µM | TGI (SW-620 colon): > 100 µM | TGI (M14 melanoma): > 100 µM | TGI (SNB-75 CNS): > 100 µM | TGI (RPMI-8226 leukemia): > 100 µM | TGI (KM12 colon): > 100 µM | TGI (UACC-257 melanoma): > 100 µM | TGI (DMS 273 small cell lung): > 100 µM | TGI (SNB-78 CNS): > 100 µM | TGI (CCRF-CEM leukemia): > 100 µM | TGI (UO-31 renal): > 100 µM | TGI (U251 CNS): > 100 µM | TGI (M19-MEL melanoma): > 100 µM | TGI (786-0 renal): > 100 µM | TGI (SK-MEL-28 melanoma): > 100 µM | TGI (RXF 393 renal): > 100 µM | TGI (DMS 114 small cell lung): > 100 µM | TGI (SF-539 CNS): > 100 µM | TGI (SK-MEL-2 melanoma): > 100 µM | TGI (TK-10 renal): > 100 µM | TGI (HCT-15 colon): > 100 µM | TGI (HT29 colon): > 100 µM | TGI (EKVX NSCLC): > 100 µM | TGI (A549 NSCLC): > 100 µM | TGI (XF 498 CNS): > 100 µM | TGI (NCI-H226 lung): > 100 µM | TGI (MOLT-4 leukemia): > 100 µM | TGI (MALME-3M melanoma): > 100 µM | TGI (CAKI-1 renal): > 100 µM | TGI (KM20L2 colon): > 100 µM | TGI (OVCAR-8 ovarian): > 100 µM | TGI (OVCAR-5 ovarian): > 100 µM | TGI (SK-MEL-5 melanoma): > 100 µM | TGI (ACHN renal): > 100 µM | TGI (HOP-62 NSCLC): > 100 µM | TGI (K-562 leukemia): > 100 µM | TGI (IGROV1 ovarian): > 100 µM | TGI (OVCAR-3 ovarian): > 100 µM | TGI (DLD-1 colon): > 100 µM | TGI (SF-295 CNS): > 100 µM

NC1CCCCC1N.O=NN1CCCCCC1(P(=O)([O-])[O-])P(=O)([O-])[O-].[Na+].[Pt+2]
GI50 (NCI-H23 lung): > 100 µM | TGI (NCI-H23 lung): > 100 µM | GI50 (HCC-2998 colon): > 100 µM | TGI (HCC-2998 colon): > 100 µM | GI50 (HOP-92 NSCLC): > 100 µM | TGI (HOP-92 NSCLC): > 100 µM | GI50 (LXFL 529 NSCLC): > 100 µM | TGI (LXFL 529 NSCLC): > 100 µM | GI50 (NCI-H460 lung): > 100 µM | TGI (NCI-H460 lung): > 100 µM | GI50 (COLO 205 colon): > 100 µM | TGI (COLO 205 colon): > 100 µM | GI50 (SK-OV-3 ovarian): > 100 µM | TGI (SK-OV-3 ovarian): > 100 µM | GI50 (HL-60(TB) leukemia): > 100 µM | TGI (HL-60(TB) leukemia): > 100 µM | GI50 (OVCAR-4 ovarian): > 100 µM | TGI (OVCAR-4 ovarian): > 100 µM | GI50 (UACC-62 melanoma): > 100 µM | TGI (UACC-62 melanoma): > 100 µM | GI50 (A498 renal): > 100 µM | TGI (A498 renal): > 100 µM | GI50 (SW-620 colon): > 100 µM | TGI (SW-620 colon): > 100 µM | GI50 (LOX IMVI melanoma): > 100 µM | TGI (LOX IMVI melanoma): > 100 µM | GI50 (M14 melanoma): > 100 µM | TGI (M14 melanoma): > 100 µM | GI50 (SNB-75 CNS): 96.9 µM | TGI (SNB-75 CNS): > 100 µM | GI50 (SNB-19 CNS): > 100 µM | TGI (SNB-19 CNS): > 100 µM | GI50 (RPMI-8226 leukemia): > 100 µM | TGI (RPMI-8226 leukemia): > 100 µM | GI50 (NCI-H522 lung): > 100 µM | TGI (NCI-H522 lung): > 100 µM | GI50 (KM12 colon): > 100 µM | TGI (KM12 colon): > 100 µM | GI50 (UACC-257 melanoma): > 100 µM | TGI (UACC-257 melanoma): > 100 µM | GI50 (DMS 273 small cell lung): > 100 µM | TGI (DMS 273 small cell lung): > 100 µM | GI50 (CCRF-CEM leukemia): > 100 µM | TGI (CCRF-CEM leukemia): > 100 µM | GI50 (UO-31 renal): > 100 µM | TGI (UO-31 renal): > 100 µM | GI50 (U251 CNS): > 100 µM | TGI (U251 CNS): > 100 µM | GI50 (786-0 renal): > 100 µM | TGI (786-0 renal): > 100 µM | GI50 (SK-MEL-28 melanoma): > 100 µM | TGI (SK-MEL-28 melanoma): > 100 µM | GI50 (RXF 393 renal): > 100 µM | TGI (RXF 393 renal): > 100 µM | GI50 (SF-539 CNS): > 100 µM | TGI (SF-539 CNS): > 100 µM | GI50 (SK-MEL-2 melanoma): > 100 µM | TGI (SK-MEL-2 melanoma): > 100 µM | GI50 (TK-10 renal): > 100 µM | TGI (TK-10 renal): > 100 µM | GI50 (HCT-15 colon): > 100 µM | TGI (HCT-15 colon): > 100 µM | GI50 (HT29 colon): > 100 µM | TGI (HT29 colon): > 100 µM | GI50 (EKVX NSCLC): > 100 µM | TGI (EKVX NSCLC): > 100 µM | GI50 (SF-268 CNS): > 100 µM | TGI (SF-268 CNS): > 100 µM | GI50 (A549 NSCLC): > 100 µM | TGI (A549 NSCLC): > 100 µM | GI50 (XF 498 CNS): > 100 µM | TGI (XF 498 CNS): > 100 µM | GI50 (MOLT-4 leukemia): > 100 µM | TGI (MOLT-4 leukemia): > 100 µM | GI50 (SN12C renal): > 100 µM | TGI (SN12C renal): > 100 µM | GI50 (MALME-3M melanoma): > 100 µM | TGI (MALME-3M melanoma): > 100 µM | GI50 (CAKI-1 renal): > 100 µM | TGI (CAKI-1 renal): > 100 µM | GI50 (KM20L2 colon): > 100 µM | TGI (KM20L2 colon): > 100 µM | GI50 (OVCAR-8 ovarian): > 100 µM | TGI (OVCAR-8 ovarian): > 100 µM | GI50 (OVCAR-5 ovarian): > 100 µM | TGI (OVCAR-5 ovarian): > 100 µM | GI50 (SK-MEL-5 melanoma): > 100 µM | TGI (SK-MEL-5 melanoma): > 100 µM | GI50 (HOP-18 NSCLC): > 100 µM | TGI (HOP-18 NSCLC): > 100 µM | GI50 (ACHN renal): > 100 µM | TGI (ACHN renal): > 100 µM | GI50 (HOP-62 NSCLC): > 100 µM | TGI (HOP-62 NSCLC): > 100 µM | GI50 (K-562 leukemia): > 100 µM | TGI (K-562 leukemia): > 100 µM | GI50 (IGROV1 ovarian): > 100 µM | TGI (IGROV1 ovarian): > 100 µM | GI50 (OVCAR-3 ovarian): > 100 µM | TGI (OVCAR-3 ovarian): > 100 µM | GI50 (DLD-1 colon): > 100 µM | TGI (DLD-1 colon): > 100 µM | GI50 (SF-295 CNS): > 100 µM | TGI (SF-295 CNS): > 100 µM

— PubChem BioAssay (NCI)
